# Molecular target: (recombinant) catalytic domain of human Bub1 (amino acids 704-1085) (Homo sapiens (Human), UniProt O43683)
# Experiment: Bub1 kinase assay (TR-FRET)
# Type: biochemical
# Conditions: ATP 10 μM final, peptide substrate 1 μM final, 60 min at 22° C., read-out: Biological Assay: Bub1 kinase assay median IC50
# Method in brief: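 Compounds were serially diluted 1:3.4 from 2 mM DMSO stocks and incubated with the enzyme reaction for 60 min at 22° C. The reaction was stopped with EDTA, and biotinylated peptide phosphorylation was read by TR-FRET using Eu anti-mouse IgG, anti-phosphoserine antibody and streptavidin-XL665. IC50 was fitted by 4-parameter logistic to inhibition normalized to no-inhibitor and no-enzyme controls.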
# Sequence of (recombinant) catalytic domain of human Bub1 (amino acids 704-1085) (O43683 704-1085): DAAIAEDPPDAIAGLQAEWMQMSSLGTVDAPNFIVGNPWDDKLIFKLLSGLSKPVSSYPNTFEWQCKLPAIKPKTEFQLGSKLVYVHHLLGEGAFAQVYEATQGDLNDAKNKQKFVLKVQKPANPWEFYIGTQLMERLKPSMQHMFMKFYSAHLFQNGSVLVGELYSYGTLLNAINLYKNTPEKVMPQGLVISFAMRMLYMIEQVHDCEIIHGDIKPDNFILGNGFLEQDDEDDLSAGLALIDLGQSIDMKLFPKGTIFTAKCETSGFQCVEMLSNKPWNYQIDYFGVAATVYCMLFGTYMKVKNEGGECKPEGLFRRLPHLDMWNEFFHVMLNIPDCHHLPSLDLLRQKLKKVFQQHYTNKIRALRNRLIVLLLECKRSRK
row,IC50,Structure (SMILES)
1,59.7 nM,"CC1(C)CC(=O)c2c([nH]c(-c3ccnc(NC(=O)[C@H]4C[C@H]4F)c3)c2Nc2ccccc2)C1 (racemic) [Example 257, (R,R)—N-{4-[6,6-dimethyl-4-oxo-3-(phenylamino)-4,5,6,7-tetrahydro-1H-indol-2-yl]pyridin-2-yl}-2-fluorocyclopropanecarboxamide]"
2,25.2 nM,"CC1(C)CC(=O)c2c([nH]c(-c3ccncn3)c2Nc2ccccc2)C1 [Example 5, 6,6-dimethyl-3-(phenylamino)-2-(pyrimidin-4-yl)-1,5,6,7-tetrahydro-4H-indol-4-one]"
3,2630 nM,"CC1(C)CC(=O)c2c([nH]c(-c3ccncc3)c2Nc2ccc(F)c(CO)c2)C1 [Example 111, 3-{[4-fluoro-3-(hydroxymethyl)phenyl]amino}-6,6-dimethyl-2-(pyridin-4-yl)-1,5,6,7-tetrahydro-4H-indol-4-one]"
4,283 nM,"CC1(C)CC(=O)c2c([nH]c(-c3ccncc3)c2Nc2cccc(Cc3ccccc3)c2)C1 [Example 415, 3-[(3-benzylphenyl)amino]-6,6-dimethyl-2-(pyridin-4-yl)-1,5,6,7-tetrahydro-4H-indol-4-one]"
5,6.39 nM,"O=C1CC2(CC2)Cc2[nH]c(-c3ccncc3F)c(Nc3ccccc3)c21 [Example 208, 2′-(3-fluoropyridin-4-yl)-3′-(phenylamino)-1′,7′-dihydrospiro[cyclopropane-1,6′-indol]-4′(5′H)-one]"
6,6.34 nM,"CC1(C)CC(=O)c2c([nH]c(-c3ccnc(NC(=O)[C@@H]4C[C@H]4F)c3)c2Nc2ccccc2)C1 (racemic) [Example 254, (S,R)—N-{4-[6,6-dimethyl-4-oxo-3-(phenylamino)-4,5,6,7-tetrahydro-1H-indol-2-yl]pyridin-2-yl}-2-fluorocyclopropanecarboxamide]"
7,2510 nM,"CC(C)Nc1cnccc1-c1[nH]c2c(c1Nc1ccccc1)C(=O)CCC2 [Example 376, 3-(phenylamino)-2-[3-(propan-2-ylamino)pyridin-4-yl]-1,5,6,7-tetrahydro-4H-indol-4-one]"
8,69.1 nM,"COCCNC(=O)Nc1cc(-c2[nH]c3c(c2Nc2ccccc2)C(=O)CCC3)ccn1 [Example 383, 1-(2-methoxyethyl)-3-{4-[4-oxo-3-(phenylamino)-4,5,6,7-tetrahydro-1H-indol-2-yl]pyridin-2-yl}urea]"
9,23.6 nM,"CCc1cccc(Nc2c(-c3ccncc3)[nH]c3c2C(=O)CC(C)(C)C3)c1 [Example 15, 3-[(3-ethylphenyl)amino]-6,6-dimethyl-2-(pyridin-4-yl)-1,5,6,7-tetrahydro-4H-indol-4-one]"
10,323 nM,"COc1cc(F)ccc1Nc1c(-c2ccncc2)[nH]c2c1C(=O)CC(C)(C)C2 [Example 121, 3-[(4-fluoro-2-methoxyphenyl)amino]-6,6-dimethyl-2-(pyridin-4-yl)-1,5,6,7-tetrahydro-4H-indol-4-one]"
11,18.8 nM,"Cn1nnnc1Nc1cc(-c2[nH]c3c(c2Nc2ccccc2)C(=O)CCC3)ccn1 [Example 374, 2-{2-[(1-methyl-1H-tetrazol-5-yl)amino]pyridin-4-yl}-3-(phenylamino)-1,5,6,7-tetrahydro-4H-indol-4-one]"
12,28.7 nM,"O=C(Cc1ccsc1)Nc1cc(-c2[nH]c3c(c2Nc2ccccc2)C(=O)CCC3)ccn1 [Example 291, N-{4-[4-oxo-3-(phenylamino)-4,5,6,7-tetrahydro-1H-indol-2-yl]pyridin-2-yl}-2-(thiophen-3-yl)acetamide]"
13,43.2 nM,"COc1cnccc1-c1[nH]c2c(c1Nc1ccccc1)C(=O)CCC2 [Example 413, 2-(3-methoxypyridin-4-yl)-3-(phenylamino)-1,5,6,7-tetrahydro-4H-indol-4-one]"
14,20.9 nM,"O=C1CC(C(F)(F)F)Cc2[nH]c(-c3ccncc3Cl)c(Nc3cccc(F)c3)c21 (centres unmarked) [Example 436, 2-(3-chloropyridin-4-yl)-3-[(3-fluorophenyl)amino]-6-(trifluoromethyl)-1,5,6,7-tetrahydro-4H-indol-4-one]"
15,12.7 nM,"CC(C)C1CC(=O)c2c([nH]c(-c3ccnc(NC(=O)C4CC4)c3)c2Nc2ccc(F)cc2)C1 (centres unmarked) [Example 322, N-{4-[3-[(4-fluorophenyl)amino]-4-oxo-6-(propan-2-yl)-4,5,6,7-tetrahydro-1H-indol-2-yl]pyridin-2-yl}cyclopropanecarboxamide]"
16,19.7 nM,"CC1(C)OC[C@@H](C(=O)Nc2cc(-c3[nH]c4c(c3Nc3ccccc3)C(=O)CCC4)ccn2)O1 [Example 460, (4S)-2,2-dimethyl-N-{4-[4-oxo-3-(phenylamino)-4,5,6,7-tetrahydro-1H-indol-2-yl]pyridin-2-yl}-1,3-dioxolane-4-carboxamide]"
17,1710 nM,"CC1(C)CC(=O)c2c([nH]c(-c3ccncc3)c2Nc2cccc(C(O)C(F)(F)F)c2)C1 (centres unmarked) [Example 155, 6,6-dimethyl-2-(pyridin-4-yl)-3-{[3-(2,2,2-trifluoro-1-hydroxyethyl)phenyl]amino}-1,5,6,7-tetrahydro-4H-indol-4-one]"
18,85.6 nM,"O=C1CCCc2[nH]c(-c3ccnc(N(C(=O)C4CC4)C(=O)C4CC4)c3)c(Nc3cccc(F)c3)c21 [Example 162, N-(cyclopropylcarbonyl)-N-(4-{3-[(3-fluorophenyl)amino]-4-oxo-4,5,6,7-tetrahydro-1H-indol-2-yl}pyridin-2-yl)cyclopropanecarboxamide]"
19,654 nM,"COc1cccc(Nc2c(-c3ccncc3)[nH]c3c2C(=O)CC(C)(C)C3)c1OC [Example 56, 3-[(2,3-dimethoxyphenyl)amino]-6,6-dimethyl-2-(pyridin-4-yl)-1,5,6,7-tetrahydro-4H-indol-4-one]"
20,3080 nM,"CC(=O)Nc1cc(-c2[nH]c3c(c2Nc2ccccc2)C(=O)CC(C)(C)C3)ncn1 [Example 357, N-{6-[6,6-dimethyl-4-oxo-3-(phenylamino)-4,5,6,7-tetrahydro-1H-indol-2-yl]pyrimidin-4-yl}acetamide]"
21,14.4 nM,"O=C(COCC(F)(F)F)Nc1cc(-c2[nH]c3c(c2Nc2ccccc2)C(=O)CCC3)ccn1 [Example 502, N-{4-[4-oxo-3-(phenylamino)-4,5,6,7-tetrahydro-1H-indol-2-yl]pyridin-2-yl}-2-(2,2,2-trifluoroethoxy)acetamide]"
22,217 nM,"O=C1CCCc2c1c(Nc1ccccc1)c(-c1ccncc1)n2CCCO [Example 175, 1-(3-hydroxypropyl)-3-(phenylamino)-2-(pyridin-4-yl)-1,5,6,7-tetrahydro-4H-indol-4-one]"
23,8.5 nM,"O=C1CC2(CC2)Cc2[nH]c(-c3ccncc3)c(Nc3ccccc3)c21 [Example 37, 3′-(phenylamino)-2′-(pyridin-4-yl)-1′,7′-dihydrospiro[cyclopropane-1,6′-indol]-4′(5′H)-one]"
24,99.8 nM,"COc1cccc(Nc2c(-c3ccncc3)[nH]c3c2C(=O)CC(C)(C)C3)c1 [Example 52, 3-[(3-methoxyphenyl)amino]-6,6-dimethyl-2-(pyridin-4-yl)-1,5,6,7-tetrahydro-4H-indol-4-one]"
25,5.93 nM,"CCC1CC(=O)c2c([nH]c(-c3ccncc3)c2Nc2ccccc2)C1 (centres unmarked) [Example 28, 6-ethyl-3-(phenylamino)-2-(pyridin-4-yl)-1,5,6,7-tetrahydro-4H-indol-4-one]"
26,174 nM,"CC(=O)c1cccc(Nc2c(-c3ccncc3)[nH]c3c2C(=O)CC(C)(C)C3)c1 [Example 113, 3-[(3-acetylphenyl)amino]-6,6-dimethyl-2-(pyridin-4-yl)-1,5,6,7-tetrahydro-4H-indol-4-one]"

# Source: US10428044B2, “3-amino-1,5,6,7-tetrahydro-4H-indol-4-ones” (Bayer Pharma Aktiengesellschaft, priority 2014, dated 2019)
